target: ROCK2 (Homo sapiens, UniProt O75116); test: ROCK2 kinase inhibition assay (Caliper LABCHIP, FITC peptide substrate); assay type: biochemical; settings: 5 μM ATP, 1.5 μM peptide substrate; value ranges
Experimental: The effectiveness of compounds of the present invention as ROCK inhibitors can be determined in a 30 μL assay containing 20 mM HEPES, pH 7.5, 20 mM MgCl2, 0.015% Brij-35, 4 mM DTT, 5 μM ATP and 1.5 μM peptide substrate (FITC-AHA-AKRRRLSSLRA-OH). Compounds were dissolved in DMSO so that the final concentration of DMSO was <2%, and the reaction was initiated with Rho kinase variants. After incubation, the reaction was terminated by the addition of EDTA and the phosphorylated and non-phosphorylated peptides separated using a LABCHIP® 3000 Reader (Caliper Life Sciences). […] Compounds were tested in dose-response format, and the inhibition of kinase activity was calculated at each concentration of compound. The inhibition data were fit using a curve-fitting program to determine the IC50; i.e., the concentration of compound required to inhibit 50% of kinase activity.
Representative Examples were tested in the ROCK2 assay described above and found having ROCK inhibitory activity.

Sequence of ROCK2 (O75116 whole entry, species assumed): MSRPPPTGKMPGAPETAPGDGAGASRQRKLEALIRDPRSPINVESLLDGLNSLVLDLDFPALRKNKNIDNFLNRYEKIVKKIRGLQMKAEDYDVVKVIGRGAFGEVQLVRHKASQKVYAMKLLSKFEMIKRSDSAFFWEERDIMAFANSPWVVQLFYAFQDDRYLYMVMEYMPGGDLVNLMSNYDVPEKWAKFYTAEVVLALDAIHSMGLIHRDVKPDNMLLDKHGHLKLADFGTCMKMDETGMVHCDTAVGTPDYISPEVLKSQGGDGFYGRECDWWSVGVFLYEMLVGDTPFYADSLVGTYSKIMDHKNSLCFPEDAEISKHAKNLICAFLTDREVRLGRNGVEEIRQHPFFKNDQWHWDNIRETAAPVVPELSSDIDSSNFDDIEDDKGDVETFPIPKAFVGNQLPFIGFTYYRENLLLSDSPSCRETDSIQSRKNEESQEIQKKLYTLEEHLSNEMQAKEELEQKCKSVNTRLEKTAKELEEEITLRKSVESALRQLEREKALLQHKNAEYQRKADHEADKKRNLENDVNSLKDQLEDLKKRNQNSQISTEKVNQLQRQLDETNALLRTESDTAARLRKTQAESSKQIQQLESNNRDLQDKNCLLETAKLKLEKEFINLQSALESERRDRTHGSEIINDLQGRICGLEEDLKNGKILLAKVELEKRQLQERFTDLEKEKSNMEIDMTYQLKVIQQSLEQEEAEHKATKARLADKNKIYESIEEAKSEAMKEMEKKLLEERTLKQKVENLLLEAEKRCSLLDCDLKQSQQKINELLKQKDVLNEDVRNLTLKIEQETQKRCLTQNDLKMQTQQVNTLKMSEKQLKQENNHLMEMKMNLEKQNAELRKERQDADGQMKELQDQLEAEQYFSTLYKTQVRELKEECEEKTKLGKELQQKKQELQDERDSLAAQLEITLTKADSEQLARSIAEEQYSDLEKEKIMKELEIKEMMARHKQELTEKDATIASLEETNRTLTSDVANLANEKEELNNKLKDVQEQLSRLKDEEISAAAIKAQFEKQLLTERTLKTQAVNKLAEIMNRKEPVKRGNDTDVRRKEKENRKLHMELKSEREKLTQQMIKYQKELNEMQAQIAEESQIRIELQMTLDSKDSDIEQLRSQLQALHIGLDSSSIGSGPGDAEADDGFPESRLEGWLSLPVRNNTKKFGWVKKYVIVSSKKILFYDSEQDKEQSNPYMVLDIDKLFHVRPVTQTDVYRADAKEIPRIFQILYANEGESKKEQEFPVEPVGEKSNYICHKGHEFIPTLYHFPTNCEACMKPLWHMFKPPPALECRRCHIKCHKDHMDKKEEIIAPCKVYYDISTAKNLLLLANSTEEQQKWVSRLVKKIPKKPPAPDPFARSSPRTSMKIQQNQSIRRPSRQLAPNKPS

SMILES | IC50 [µM]
COc1cccc(CN2C(=O)N(c3ccc(-c4cn[nH]c4)cc3)CC2CO)c1 (racemic) [Example 37, 1-(4-(1H-Pyrazol-4-yl)phenyl)-4-(hydroxymethyl)-3-(3-methoxybenzyl)imidazolidin-2-one] | < 0.002
COc1cccc(CN2C(=O)N(c3ccc(-c4cn[nH]c4)cc3)CC2C(C)(C)O)c1 (single isomer, unassigned) [Example 123, 1-(4-(1H-Pyrazol-4-yl)phenyl)-4-(2-hydroxypropan-2-yl)-3-(3-methoxybenzyl)imidazolidin-2-one] | < 0.002
COc1cccc(CN2C(=O)N(c3ccc(-c4cn[nH]c4)cc3)CC2C(C)(C)O)c1 (single isomer, unassigned) [Example 124, 1-(4-(1H-Pyrazol-4-yl)phenyl)-4-(2-hydroxypropan-2-yl)-3-(3-methoxybenzyl)imidazolidin-2-one] | < 0.002
COc1cccc(CN2CC(CO)N(c3ccc(-c4cn[nH]c4)cc3)C2=O)c1 (single isomer, unassigned) [Example 126, 3-(4-(1H-Pyrazol-4-yl)phenyl)-4-(hydroxymethyl)-1-(3-methoxybenzyl)imidazolidin-2-one] | 0.0201 to 0.2
COc1cccc(CN2CC(CO)N(c3ccc(-c4cn[nH]c4)cc3)C2=O)c1 (single isomer, unassigned) [Example 127, 3-(4-(1H-Pyrazol-4-yl)phenyl)-4-(hydroxymethyl)-1-(3-methoxybenzyl)imidazolidin-2-one] | < 0.002
COc1cc(CN2C(=O)N(c3ccc(-c4cn[nH]c4)cc3)C[C@@H]2CO)ccc1F (single isomer, unassigned) [Example 130] | 0.0021 to 0.02
COc1cc(CN2C(=O)N(c3ccc(-c4cn[nH]c4)cc3)C[C@H]2CO)ccc1F (single isomer, unassigned) [Example 131] | 0.0021 to 0.02
COc1cccc(C(C)N2C(=O)N(c3ccc(-c4cn[nH]c4)cc3)C[C@@H]2CO)c1 (single isomer, unassigned) [Example 132] | 0.0021 to 0.02
COc1cccc(C(C)N2C(=O)N(c3ccc(-c4cn[nH]c4)cc3)C[C@@H]2CO)c1 (single isomer, unassigned) [Example 133] | 0.0201 to 0.2
COc1cccc(CN2C(=O)N(c3ccc(-c4cn[nH]c4)c(OC)c3)CC2CO)c1 (single isomer, unassigned) [Example 134, 4-(hydroxy-methyl)-1-(3-methoxy-4-(1H-pyrazol-4-yl)phenyl)-3-(3-methoxy-benzyl) imidazolidin-2-one] | 0.2 to 2
COc1cccc(CN2C(=O)N(c3ccc(-c4cn[nH]c4)c(OC)c3)CC2CO)c1 (single isomer, unassigned) [Example 135, 4-(hydroxy-methyl)-1-(3-methoxy-4-(1H-pyrazol-4-yl)phenyl)-3-(3-methoxy-benzyl) imidazolidin-2-one] | 0.2 to 2
COc1cccc(C(C)N2C(=O)N(c3ccc(-c4cn[nH]c4)cc3)CC2(C)C)c1 (single isomer, unassigned) [Example 145, 1-(4-(1H-pyrazol-4-yl)phenyl)-3-(1-(3-methoxy-phenyl)-ethyl)-4,4-dimethyl-imidazolidin-2-one] | 0.0021 to 0.02
COc1cccc(C(C)N2C(=O)N(c3ccc(-c4cn[nH]c4)cc3)CC2(C)C)c1 (single isomer, unassigned) [Example 146, 1-(4-(1H-pyrazol-4-yl)phenyl)-3-(1-(3-methoxy-phenyl)-ethyl)-4,4-dimethyl-imidazolidin-2-one] | 0.0201 to 0.2
COc1cccc(C(CO)N2CCN(c3ccc(-c4cn[nH]c4)cc3)C2=O)c1 (single isomer, unassigned) [Example 154, 1-(4-(1H-Pyrazol-4-yl)phenyl)-3-(2-hydroxy-1-(3-methoxyphenyl)ethyl)imidazolidin-2-one] | 0.0201 to 0.2
COc1cccc(C(CO)N2CCN(c3ccc(-c4cn[nH]c4)cc3)C2=O)c1 (single isomer, unassigned) [Example 155, 1-(4-(1H-Pyrazol-4-yl)phenyl)-3-(2-hydroxy-1-(3-methoxyphenyl)ethyl)imidazolidin-2-one] | < 0.002
COCC(c1cccc(OC)c1)N1CCN(c2ccc(-c3cn[nH]c3)cc2)C1=O (single isomer, unassigned) [Example 156, 1-(4-(1H-Pyrazol-4-yl)phenyl)-3-(2-methoxy-1-(3-methoxyphenyl)ethyl)imidazolidin-2-one] | 0.0021 to 0.02
COCC(c1cccc(OC)c1)N1CCN(c2ccc(-c3cn[nH]c3)cc2)C1=O (single isomer, unassigned) [Example 157, 1-(4-(1H-Pyrazol-4-yl)phenyl)-3-(2-methoxy-1-(3-methoxyphenyl)ethyl)imidazolidin-2-one] | 0.2 to 2

SMILES | IC50 [µM]
CCc1nc(N2CCN(C(CO)c3cccc(OC)c3)C2=O)ccc1-c1cn[nH]c1 (single isomer, unassigned) [Example 158, 1-(6-ethyl-5-(1H-pyrazol-4-yl)pyridin-2-yl)-3-(2-hydroxy-1-(3-methoxy-phenyl)ethyl) imidazolidin-2-one] | 0.0201 to 0.2
CCc1nc(N2CCN(C(CO)c3cccc(OC)c3)C2=O)ccc1-c1cn[nH]c1 (single isomer, unassigned) [Example 159, 1-(6-ethyl-5-(1H-pyrazol-4-yl)pyridin-2-yl)-3-(2-hydroxy-1-(3-methoxy-phenyl)ethyl) imidazolidin-2-one] | < 0.002
COc1cccc(C(CO)N2CCN(c3ccc(-c4cn[nH]c4)c(C)n3)C2=O)c1 (single isomer, unassigned) [Example 160, 1-(2-hydroxy-1-(3-methoxy-phenyl)ethyl)-3-(6-methyl-5-(1H-pyrazol-4-yl)pyridin-2-yl)imidazolidin-2-one] | 0.0201 to 0.2
COc1cccc(C(CO)N2CCN(c3ccc(-c4cn[nH]c4)c(C)n3)C2=O)c1 (single isomer, unassigned) [Example 161, 1-(2-hydroxy-1-(3-methoxy-phenyl)ethyl)-3-(6-methyl-5-(1H-pyrazol-4-yl)pyridin-2-yl)imidazolidin-2-one] | 0.0021 to 0.02
O=C1N(c2ccc(-c3cn[nH]c3)cc2)CCN1C(CO)c1ccccc1 (single isomer, unassigned) [Example 162, 1-(4-(1H-pyrazol-4-yl)phenyl)-3-(2-hydroxy-1-phenylethyl) imidazolidin-2-one] | 0.2 to 2
O=C1N(c2ccc(-c3cn[nH]c3)cc2)CCN1C(CO)c1ccccc1 (single isomer, unassigned) [Example 163, 1-(4-(1H-pyrazol-4-yl)phenyl)-3-(2-hydroxy-1-phenylethyl) imidazolidin-2-one] | 0.0021 to 0.02
COc1cccc(C(CO)N2CCN(c3ccc(-c4cn[nH]c4)c(C)c3)C2=O)c1 (single isomer, unassigned) [Example 164, 1-(2-hydroxy-1-(3-methoxy-phenyl)ethyl)-3-(3-methyl-4-(1H-pyrazol-4-yl)phenyl) imidazolidin-2-one] | 0.2 to 2
COc1cccc(C(CO)N2CCN(c3ccc(-c4cn[nH]c4)c(C)c3)C2=O)c1 (single isomer, unassigned) [Example 165, 1-(2-hydroxy-1-(3-methoxy-phenyl)ethyl)-3-(3-methyl-4-(1H-pyrazol-4-yl)phenyl) imidazolidin-2-one] | 0.0021 to 0.02
CCc1cc(N2CCN(C(CO)c3cccc(OC)c3)C2=O)ccc1-c1cn[nH]c1 (single isomer, unassigned) [Example 166, 1-(3-ethyl-4-(1H-pyrazol-4-yl)phenyl)-3-(2-hydroxy-1-(3-methoxy-phenyl)ethyl) imidazolidin-2-one] | 0.0021 to 0.02
CCc1nc(N2CCN(C(C)c3cccc(OC)c3)C2=O)ccc1-c1cn[nH]c1 (single isomer, unassigned) [Example 173, 1-(6-ethyl-5-(1H-pyrazol-4-yl)pyridin-2-yl)-3-(1-(3-methoxy-phenyl)ethyl) imidazolidin-2-one] | < 0.002
CCc1nc(N2CCN(C(C)c3cccc(OC)c3)C2=O)ccc1-c1cn[nH]c1 (single isomer, unassigned) [Example 174, 1-(6-ethyl-5-(1H-pyrazol-4-yl)pyridin-2-yl)-3-(1-(3-methoxy-phenyl)ethyl) imidazolidin-2-one] | 0.2 to 2
COc1cccc(C(C)N2CCN(c3ccc(-c4cn[nH]c4)c(C)n3)C2=O)c1 (single isomer, unassigned) [Example 181, 1-(1-(3-methoxy-phenyl)-ethyl)-3-(6-methyl-5-(1H-pyrazol-4-yl)pyridin-2-yl)-imidazolidin-2-one] | 0.0021 to 0.02
COc1cccc(C(C)N2CCN(c3ccc(-c4cn[nH]c4)c(C)n3)C2=O)c1 (single isomer, unassigned) [Example 182, 1-(1-(3-methoxy-phenyl)-ethyl)-3-(6-methyl-5-(1H-pyrazol-4-yl)pyridin-2-yl)-imidazolidin-2-one] | 0.2 to 2
CCc1nc(-n2ccn(C(C)c3cccc(OC)c3)c2=O)ccc1-c1cn[nH]c1 (single isomer, unassigned) [Example 183, 1-(6-ethyl-5-(1H-pyrazol-4-yl)pyridin-2-yl)-3-(1-(3-methoxy-phenyl)-ethyl)-1H-imidazol-2(3H)-one] | < 0.002
CCc1nc(-n2ccn(C(C)c3cccc(OC)c3)c2=O)ccc1-c1cn[nH]c1 (single isomer, unassigned) [Example 184, 1-(6-ethyl-5-(1H-pyrazol-4-yl)pyridin-2-yl)-3-(1-(3-methoxy-phenyl)-ethyl)-1H-imidazol-2(3H)-one] | 0.2 to 2
COc1cccc(C(C)n2ccn(-c3ccc(-c4cn[nH]c4)c(C)n3)c2=O)c1 (single isomer, unassigned) [Example 188, 1-(1-(3-methoxy-phenyl)ethyl)-3-(6-methyl-5-(1H-pyrazol-4-yl)pyridin-2-yl)-1H-imidazol-2(3H)-one] | < 0.002

Source: patent publication US10123993B2, “Cyclic ureas as inhibitors of rock” (BRISTOL-MYERS SQUIBB COMPANY, priority 2015, dated 2018)
